Experiments:
PPARα [1] = target: T1, PPARα (Homo sapiens, UniProt Q07869); assay: Fluorescent Polarization (FP) binding assay with corepressor peptides, PPARα; settings: Nb = no binding
T1 construct: purchased Cayman Chemicals
T1 sequence (Q07869 239-466 limits assumed): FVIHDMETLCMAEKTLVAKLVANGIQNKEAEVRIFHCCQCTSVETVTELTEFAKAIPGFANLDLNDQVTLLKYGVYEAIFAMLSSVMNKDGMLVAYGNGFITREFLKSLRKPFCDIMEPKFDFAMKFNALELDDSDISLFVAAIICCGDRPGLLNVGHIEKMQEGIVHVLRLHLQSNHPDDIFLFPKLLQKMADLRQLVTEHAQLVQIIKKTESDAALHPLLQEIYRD
Procedure: (§1) For PPARγ screening, a fluorescent ligand supplied by Cayman Chemicals was also used. All compounds were dissolved in DMSO as 10 mM stock solutions and the final DMSO content in the assay was <1%. A TECAN Ultra 485 multi-functional microplate reader and GraphPad prism 4 software were used for measurements and analysis, respectively.
(§2) PPAR antagonists are expected to enhance the affinities of the corepressor peptides, and therefore, FP should increase as the compound concentration increases. Agonists would be expected to weaken the affinity of the same co-repressor peptide. Although this effect occurs for PPARγ, the dissociation of corepressor peptides varies for PPARα and PPARδ due to altered presentations of the overlapping coactivator/corepressor binding surfaces (Stanley T. B. et al. Biochemistry 42:9278-87, 2003). Compounds were screened initially against PPARγ and PPARδ at 1 and 100 μM. If binding was observed, titration experiments from 10 nM to 100 μM were carried out in triplicate with all three PPARs. […] For screening, either enhancement or weakening of FP was considered active.
(§3) Virtual screening for PPARγ was conducted against 56,000 compounds from the Maybridge library that targeted the ligand binding domain (LBD) of PPARγ, and 10 conformations of each compound were docked to the LBD using Autdock4 software (Scripps Institute). Sixty of the top ranked compounds were ordered from Maybridge, and 58 were available for evaluation. Fluorescent Polarization (FP) assays were established with the tagged co-repressor peptides NCoR1 and SMRT, the recombinant PPARα and PPARγ ligand-binding domains and full-length PPARδ. […] Sd-107 and its analogs are disclosed herein. The chemical structure is shown below.

PPARγ [2] = target: T2, PPARγ (Homo sapiens, UniProt P37231); assay: Fluorescent Polarization (FP) binding assay with corepressor peptides, PPARγ; settings: for EC50 / Binding assay EC50, γ: FP assay, Nb = no binding; for EC50: read-out: Binding assay EC50, γ; for Competition in FPA of PPARγ with fluorescent labeled NCoR peptide probe: FIG. 17, YL-1-80 analogs
T2 construct: purchased Cayman Chemicals
T2 sequence (P37231 238-503 limits assumed): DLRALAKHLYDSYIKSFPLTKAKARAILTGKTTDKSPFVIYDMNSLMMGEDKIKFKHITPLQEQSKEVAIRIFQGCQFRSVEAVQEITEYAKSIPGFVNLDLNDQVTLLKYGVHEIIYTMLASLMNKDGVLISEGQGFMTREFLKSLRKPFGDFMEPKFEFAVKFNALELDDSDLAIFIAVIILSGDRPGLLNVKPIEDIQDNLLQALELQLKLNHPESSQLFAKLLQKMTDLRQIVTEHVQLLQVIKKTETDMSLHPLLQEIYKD
Procedure: as §1, §2, §3

PPARδ [3] = target: T3, PPARδ (Homo sapiens, UniProt Q03181); assay: Fluorescent Polarization (FP) binding assay with corepressor peptides, PPARδ; settings: Nb = no binding
T3 construct: purchased Cayman Chemicals
T3 sequence (Q03181 1-441): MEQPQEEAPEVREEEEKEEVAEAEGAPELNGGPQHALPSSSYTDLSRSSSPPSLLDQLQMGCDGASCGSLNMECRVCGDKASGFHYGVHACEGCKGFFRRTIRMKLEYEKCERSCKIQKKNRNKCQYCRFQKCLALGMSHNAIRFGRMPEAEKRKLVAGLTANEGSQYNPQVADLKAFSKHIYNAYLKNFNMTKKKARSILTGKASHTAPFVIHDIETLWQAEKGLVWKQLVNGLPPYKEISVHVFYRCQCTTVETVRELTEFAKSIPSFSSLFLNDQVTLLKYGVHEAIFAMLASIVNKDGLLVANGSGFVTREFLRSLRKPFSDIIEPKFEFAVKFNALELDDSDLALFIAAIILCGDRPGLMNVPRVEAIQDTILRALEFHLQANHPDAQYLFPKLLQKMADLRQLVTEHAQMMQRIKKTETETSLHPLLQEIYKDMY
Procedure: as §1, §2, §3

PPARα [4] = assay: PPAR reporter assay in 293T cells, PPARα (agonist WY14643); type: cell-based; settings: 1 μM agonist WY14643
PPARγ [5] = target: T4, PPARγ (Mus musculus, UniProt P37238); assay: PPAR reporter assay in 293T cells, PPARγ (agonist GW7845); type: cell-based; settings: for inhibition at 1 µM / inhibition at 2.5 µM / inhibition at 10 µM / inhibition at 25 µM: HEK-293T, 1 μM agonist GW7845, 293T cells, read-out: Reporter assay (% inhibition), γ; for inhibition at 1 µM: 1 μM compound; for inhibition at 2.5 µM: 2.5 μM compound; for inhibition at 10 µM: 10 μM compound; for inhibition at 25 µM: 25 μM compound
T4 construct: expressed in transfected cells; host or cells: 293T cells
T4 sequence (P37238 1-505): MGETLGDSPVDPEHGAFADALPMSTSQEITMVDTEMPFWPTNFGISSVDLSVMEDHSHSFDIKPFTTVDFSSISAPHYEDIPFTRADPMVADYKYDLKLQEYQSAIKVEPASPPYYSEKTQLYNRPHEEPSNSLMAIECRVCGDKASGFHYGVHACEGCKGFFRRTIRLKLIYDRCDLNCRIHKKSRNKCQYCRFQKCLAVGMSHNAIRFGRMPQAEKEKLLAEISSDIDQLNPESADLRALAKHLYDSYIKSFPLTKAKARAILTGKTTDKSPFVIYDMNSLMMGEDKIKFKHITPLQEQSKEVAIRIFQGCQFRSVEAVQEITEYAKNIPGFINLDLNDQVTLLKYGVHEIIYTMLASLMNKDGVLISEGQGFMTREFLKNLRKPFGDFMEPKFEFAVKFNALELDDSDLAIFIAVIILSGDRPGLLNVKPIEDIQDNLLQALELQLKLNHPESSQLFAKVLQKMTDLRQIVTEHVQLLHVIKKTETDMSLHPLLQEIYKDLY

PPARδ [6] = assay: PPAR reporter assay in 293T cells, PPARδ (agonist GW501516); type: cell-based; settings: 1 μM agonist GW501516
PPARα, PPARγ, PPARδ = assay: PPAR reporter assays, isotype profile over the three PPARs; settings: for PPAR inhibitor type (Table 1): from reporter data

| Structure (SMILES) | Binding assay EC50, α (PPARα [1]) | EC50 (PPARγ [2]) [nM] | Binding assay EC50, δ (PPARδ [3]) | inhibition at 1 µM (PPARγ [5]) [%] | inhibition at 10 µM (PPARγ [5]) [%] | inhibition at 25 µM (PPARγ [5]) [%] | Reporter assay (% inhibition), α (PPARα [4]; 1 μM compound) [%] | Reporter assay (% inhibition), α (PPARα [4]; 10 μM compound) [%] | Reporter assay (% inhibition), α (PPARα [4]; 25 μM compound) [%] | Reporter assay (% inhibition), δ (PPARδ [6]; 1 μM compound) | Reporter assay (% inhibition), δ (PPARδ [6]; 10 μM compound) [%] | Reporter assay (% inhibition), δ (PPARδ [6]; 25 μM compound) [%] | PPAR inhibitor type (Table 1) (PPARα, PPARγ, PPARδ) | also measured |
| --- | --- | --- | --- | --- | --- | --- | --- | --- | --- | --- | --- | --- | --- | --- |
| COc1ccc(S(=O)(=O)N(C(=O)c2ccc(Cl)cc2)N(C(=O)c2ccc(Cl)cc2)C(=O)c2ccc(Cl)cc2)cc1 [YL-1-38-1] | nb | 40800 | δ nb | 0 | 50 | 75 | 0 | 15 | 40 | 0% | 0 | 47 | Pan inhibitor | Effect on FP of corepressor peptide, PPARγ (PPARγ [2]; FIG. 3): weakened the affinity of the peptide to PPARγ; Selectivity of binding in FP assay (PPARγ [2]; titration with all three PPARs): selective binding to PPARγ; Reporter assay (% inhibition), α (PPARα [4]; 2.5 μM compound): 0%; inhibition at 2.5 µM (PPARγ [5]): 16%; Reporter assay (% inhibition), δ (PPARδ [6]; 2.5 μM compound): 0% |
| O=C(NN(C(=O)c1ccc(Cl)cc1)S(=O)(=O)c1ccc(C(F)(F)F)cc1)c1ccc(Cl)cc1 [YL-1-81] | nb | 15200 | δ nb |  |  | 32 |  |  | 8 |  |  | 46 | PPARγ/δ inhibitor |  |
| CC(C)(C)c1ccc(S(=O)(=O)N(C(=O)c2ccc(Cl)cc2)N(C(=O)c2ccc(Cl)cc2)C(=O)c2ccc(Cl)cc2)cc1 [YL-1-68-1] | α nb γ nb |  | δ nb | 0 | 50 | 75 | 0 | 0 | 17 | 0% | 0 | 47 | PPARγ/δ inhibitor | Binding assay EC50, γ (PPARγ [2]): α nb γ nb; inhibition at 2.5 µM (PPARγ [5]): 16%; Reporter assay (% inhibition), δ (PPARδ [6]; 2.5 μM compound): 0% |
| CC(C)(C)c1ccc(C(=O)N(N)S(=O)(=O)c2ccc(C(C)(C)C)cc2)cc1 [YL-1-69] | α nb γ nb |  | δ nb | 0 | 25 | 50 | 0 | 15 | 20 | 0% | 10 | 20 | Pan inhibitor | Binding assay EC50, γ (PPARγ [2]): α nb γ nb |

Further lines, with some results ahead:

| Binding assay EC50, α (PPARα [1]) | EC50 (PPARγ [2]) [nM] | Binding assay EC50, δ (PPARδ [3]) | inhibition at 1 µM (PPARγ [5]) [%] | inhibition at 10 µM (PPARγ [5]) [%] | inhibition at 25 µM (PPARγ [5]) [%] | Structure (SMILES) | Reporter assay (% inhibition), α (PPARα [4]; 1 μM compound) [%] | Reporter assay (% inhibition), α (PPARα [4]; 10 μM compound) [%] | Reporter assay (% inhibition), α (PPARα [4]; 25 μM compound) [%] | Reporter assay (% inhibition), δ (PPARδ [6]; 1 μM compound) | Reporter assay (% inhibition), δ (PPARδ [6]; 10 μM compound) [%] | Reporter assay (% inhibition), δ (PPARδ [6]; 25 μM compound) [%] | PPAR inhibitor type (Table 1) (PPARα, PPARγ, PPARδ) | also measured |
| --- | --- | --- | --- | --- | --- | --- | --- | --- | --- | --- | --- | --- | --- | --- |
|  | 110 | δ nb | 0 | 0 | 37 | CC(C)(C)c1ccc(S(=O)(=O)N(NC(=O)c2ccc(Cl)nc2)C(=O)c2ccc(Cl)nc2)cc1 [YL-1-83] | 0 | 0 | 0 | 0% | 0 | 0 | PPARγ inhibitor | EC50 (PPARα [1]; read-out: Binding assay EC50, α): 1300 nM; Competition in FPA of PPARγ with fluorescent labeled NCoR peptide probe (PPARγ [2]): best competition; PPARγ antagonism (PPARγ [5]; binding and reporter screening): weak PPARγ antagonist; PPAR isotype selectivity in reporter assays (PPARα, PPARγ, PPARδ; inhibition of activation by 1 μM agonist): more selective for PPARγ |
| nb | 1400 | δ nb | 0 | 23 | 67 | CC(C)(C)c1ccc(S(=O)(=O)N(NC(=O)c2ccc(Cl)cc2)C(=O)c2ccc(Cl)cc2)cc1 [YL-1-68-2] | 16 | 23 | 57 | 0% | 18 | 46 | Pan inhibitor |  |
| nb | 410 | δ nb | 19 | 28 | 79 | CC(=O)Oc1ccc(C(=O)NN(C(=O)c2ccc(OC(C)=O)cc2)S(=O)(=O)c2ccc(C(C)(C)C)cc2)cc1 [YL-1-87] | 0 | 0 | 52 | δ 18% | 23 | 60 | Pan inhibitor |  |
| nb | 9200 | δ nb | 18 | 58 | 79 | CC(C)(C)c1ccc(C(=O)N(NC(=O)c2ccc(Cl)cc2)S(=O)(=O)c2ccc(C(C)(C)C)cc2)cc1 [YL-1-80] | 0 | 24 | 53 | δ 12% | 31 | 64 | Pan inhibitor | Competition in FPA of PPARγ with fluorescent labeled NCoR peptide probe (PPARγ [2]): best competition |

Reference: patent US20130158063A1, “Compounds, Compositions and Methods Related to PPAR Antagonists” (GEORGETOWN UNIVERSITY, priority 2010, published 2013)
